We go through 1 substance from publication PMC11187126, “Structure and dynamics of the pyroglutamylated RF-amide peptide QRFP receptor GPR103” (Nature Communications, 2024).

Like-named read-outs stand apart in the source and are kept apart here. No end group written: not given here.

In the test the target is T1, GPR103 E203^ECL2A/Q211^5.35E/E297^6.59A (Homo sapiens, UniProt Q96P65, E203A/E297A/Q211E).
T1 construct: we used human full-length QRFPR-encoding plasmids; expressed in transfected cells; host or cells: HEK293 cells (HEK293A in the flow cytometry section), pCAGGS vector
T1 sequence (Q96P65 1-431 E203A/Q211E/E297A): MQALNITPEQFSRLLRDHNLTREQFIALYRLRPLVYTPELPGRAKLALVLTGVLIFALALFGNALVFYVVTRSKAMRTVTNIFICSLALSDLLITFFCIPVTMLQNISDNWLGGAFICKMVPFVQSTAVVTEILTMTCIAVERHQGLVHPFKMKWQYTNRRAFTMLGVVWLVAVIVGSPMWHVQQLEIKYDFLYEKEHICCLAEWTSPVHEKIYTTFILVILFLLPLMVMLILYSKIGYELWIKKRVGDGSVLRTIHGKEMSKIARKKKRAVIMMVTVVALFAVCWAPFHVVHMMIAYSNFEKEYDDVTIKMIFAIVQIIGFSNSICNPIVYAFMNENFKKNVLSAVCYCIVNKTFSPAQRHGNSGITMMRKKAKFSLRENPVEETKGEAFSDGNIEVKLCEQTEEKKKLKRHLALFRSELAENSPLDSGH
Put plainly: TGFα shedding assay; Exp. level >WT (1:1). The class given is cell-based. Here is the method: For the TGFα shedding assay and the flow cytometry analysis, we used human full-length QRFPR-encoding plasmids. Specifically, GPR103 was N-terminally modified with an HA signal sequence followed by a FLAG epitope and then a flexible linker ([…]; the FLAG epitope is underlined) and inserted into the pCAGGS vector. Plasmid encoding GPR103 mutants were generated using Quickchange Site-Directed Mutagensis kit (Agilent).
The TGFα shedding assay was performed as described previously with minor modifications. Plasmid transfection was performed in a 6-well plate with a mixture of 500 ng (per well in a 6-well plate) AP-TGFα-encoding plasmid and 200 ng GPR103-encoding plasmid. After 1-day culture, the transfected cells were harvested by trypsinization, pelleted by centrifugation at 190 × g for 5 min, and washed once with 5 mM HEPES (pH 7.4)-containing Hank’s Balanced Salt Solution (HBSS). After centrifugation, the cells were resuspended in 8 mL of the HEPES-containing HBSS. The cell suspension was seeded in a 96-well culture plate (cell plate) at a volume of 90 μL (per well hereafter) and incubated in a 37 °C incubator with 5% CO2 for 30 min. […] After spinning the cell plates at 190 × g for 2 min, 80 μL of conditioned media was transferred to an empty 96-well plate (conditioned media (CM) plate). Then, 80 μL of AP reaction solution (10 mM p-nitrophenylphosphate (p-NPP), 120 mM Tris-HCl (pH 9.5), 40 mM NaCl, and 10 mM MgCl2) was dispensed into the cell plates and the CM plates. Absorbance at 405 nm of the plates was measured using a microplate reader (SpectraMax 340 PC384, Molecular Devices) before and after 1-h incubation at room temperature. Ligand-induced AP-TGFα release was calculated by subtracting spontaneous AP-TGFα release signal from ligand-induced AP-TGFα release signal. The AP-TGFα release signals were fitted to a four-parameter sigmoidal concentration–response curve, using the Prism 10 software (GraphPad Prism). For each replicate experiment, the pEC50 parameter (negative logarithmic values of EC50 values) of the individual GPR103 mutants were normalized to that of the wild-type GPR103 performed in parallel, and resulting ∆pEC50 values were used to denote ligand response activity of the mutants. […]
Exp. le vel: WT (1:5 0)Exp. le vel: WT (1:5 0)Exp. le vel: WT (1:5 0)Exp. le vel: WT (1:2 0)Exp. le vel: WT (1:2 0)Exp. le vel: WT (1:1 0) […]
L1 4N - t e r mA F2 5N - t e r mA I 2 6N - t e r mA Y 2 9N - t e r mA C 9 82 .5 7A T10 22 .6 1A Exp . l eve l: WT (1 :5)Exp . l evel : >WT (1 :1)Exp. le vel: WT (1:2 0)Exp. le vel: WT (1:2 0)Exp. le vel: WT (1:5 0)Exp . l eve l: WT (1 :1) […]
Exp. le vel: WT (1:1 0)Exp. le vel: WT (1:2 0) C 1 1 83 .2 5AExp. le vel: WT (1:5 0)Exp. le vel: WT (1:5 0)Exp. le vel: WT (1:2 0)Exp . l eve l: WT (1 :5) […]
Exp. le vel: WT (1:5 0)Exp. le vel: WT (1:1 0)Exp. le vel: WT (1:5 0) E203ECL2AExp . l evel : >WT (1 :1)Exp. le vel: WT (1:5 0)Exp. le vel: WT (1:5 0) […]
Exp . l eve l: WT (1 :1) F28Exp. le vel: WT (1:5 0) C 2 8 56 .4 7AExp. le vel: WT (1:2 0) WExp. le vel: WT (1:2 0) F28Exp. le vel: WT (1:5 0)Exp . l evel : >WT (1 :1) […]
Exp. le vel: WT (1:5 0)Exp. le vel: WT (1:5 0) C 3 2 77 .4 8AExp . l eve l: WT (1 :5)Exp . l evel : >WT (1 :1)Exp . l evel : >WT (1 :1) […]
Suppl eme nt ary Figure 1 | Mutational analysis of GPR103. […]
mutants. Data are presented as mean values ± SEM, normally n=3-5; dots), each performed in triplicate. b-d Cell-surface expression (b) and QRFP26-in-duced activation of GPR103 (c, d) were analyzed by the flow cytometry and the TGFα shedding assay, respectively. From the concentration–response curves (a), Emax (c) and ΔpEC50 (d) values relative to the wild type were calculated. Colors in the mutant bars indicate an expression level matching to that of titrated wild type. Statistical analyses were performed using the ordinary one-way ANOVA followed by Dunnett tests with the expression-matched […]

One may read the EC50 as the midpoint of the concentration-response curve. In the case of TSGPLGNLAEELNGYSRKKGGFSFRF-NH2 [QRFP26], the Emax runs as follows: (Exp. #1) 103.81 % WT; (Exp. #2) 100.88 % WT; (Exp. #3) 112.76 % WT; (mean, read-out: Emax) 106%; (n = 3, read-out: Emax) 109 ± 2.9%. Further, for the setting “n = 3”, the midpoint of the response, the EC50, lay at 427 nM.
